From BindingDB's records for patent US12377080 (Dana-Farber Cancer Institute, 2025)

Assays:
[1] = molecular target: Epidermal growth factor receptor [L858R] (Homo sapiens, UniProt P00533, L858R); assay: HTRF-Based EGFR Biochemical Assays
Protocol: (§1) EGFR biochemical activity measurements were carried out using the homogeneous time-resolved fluorescence (HTRF) assay (Cisbio). Inhibitors and DMSO normalizations were first dispensed to empty black low-volume 384-well plates (Corning) with D300 digital liquid dispenser (HP). All reactions were carried out at room temperature and solutions were added to plates with a Multidrop Combi Reagent Dispenser (ThermoFisher). The reaction mixture (10 μL final volume) contained 1 μM tyrosine kinase peptide-biotin substrate and mutant EGFR in a reaction buffer (50 mM HEPES pH 7,0, 5 mM MgCl2,1 mM MnCl2, 0.01% BSA, 2 mM TCEP, 0.1 mM NaVO4). Enzyme concentrations were adjusted to accommodate varying kinase activities (L858R 0.1 nM, L858R!T790M 0,02 nM). Enzyme reaction solution (2× concentrations, 5 μL) was added to 384-well plates containing compounds and incubated for 30 mins. Enzyme reactions were initiated with the addition of […] of ATP to a final concentration of 100 μM and reacted for 20 mins. Reactions were quenched with the addition of 10 μL of phospho-tyrosine antibody-Europium(III) cryptate (1-to-180 volume ratio) and Streptavidin-XL665 (46.7 nM) in EDTA-containing detection buffer, then incubated at room temperature for 1 hour, and read with a PHERAstar plate reader (excitation =337 nm, emission =620 nm and 665 nm).

[2] = molecular target: Epidermal growth factor receptor [T790M,L858R] (Homo sapiens, UniProt P00533, L858R/T790M); assay: HTRF-Based EGFR Biochemical Assays
Protocol: as §1

Sequence of Epidermal growth factor receptor [L858R] (P00533 25-1210 L858R limits assumed): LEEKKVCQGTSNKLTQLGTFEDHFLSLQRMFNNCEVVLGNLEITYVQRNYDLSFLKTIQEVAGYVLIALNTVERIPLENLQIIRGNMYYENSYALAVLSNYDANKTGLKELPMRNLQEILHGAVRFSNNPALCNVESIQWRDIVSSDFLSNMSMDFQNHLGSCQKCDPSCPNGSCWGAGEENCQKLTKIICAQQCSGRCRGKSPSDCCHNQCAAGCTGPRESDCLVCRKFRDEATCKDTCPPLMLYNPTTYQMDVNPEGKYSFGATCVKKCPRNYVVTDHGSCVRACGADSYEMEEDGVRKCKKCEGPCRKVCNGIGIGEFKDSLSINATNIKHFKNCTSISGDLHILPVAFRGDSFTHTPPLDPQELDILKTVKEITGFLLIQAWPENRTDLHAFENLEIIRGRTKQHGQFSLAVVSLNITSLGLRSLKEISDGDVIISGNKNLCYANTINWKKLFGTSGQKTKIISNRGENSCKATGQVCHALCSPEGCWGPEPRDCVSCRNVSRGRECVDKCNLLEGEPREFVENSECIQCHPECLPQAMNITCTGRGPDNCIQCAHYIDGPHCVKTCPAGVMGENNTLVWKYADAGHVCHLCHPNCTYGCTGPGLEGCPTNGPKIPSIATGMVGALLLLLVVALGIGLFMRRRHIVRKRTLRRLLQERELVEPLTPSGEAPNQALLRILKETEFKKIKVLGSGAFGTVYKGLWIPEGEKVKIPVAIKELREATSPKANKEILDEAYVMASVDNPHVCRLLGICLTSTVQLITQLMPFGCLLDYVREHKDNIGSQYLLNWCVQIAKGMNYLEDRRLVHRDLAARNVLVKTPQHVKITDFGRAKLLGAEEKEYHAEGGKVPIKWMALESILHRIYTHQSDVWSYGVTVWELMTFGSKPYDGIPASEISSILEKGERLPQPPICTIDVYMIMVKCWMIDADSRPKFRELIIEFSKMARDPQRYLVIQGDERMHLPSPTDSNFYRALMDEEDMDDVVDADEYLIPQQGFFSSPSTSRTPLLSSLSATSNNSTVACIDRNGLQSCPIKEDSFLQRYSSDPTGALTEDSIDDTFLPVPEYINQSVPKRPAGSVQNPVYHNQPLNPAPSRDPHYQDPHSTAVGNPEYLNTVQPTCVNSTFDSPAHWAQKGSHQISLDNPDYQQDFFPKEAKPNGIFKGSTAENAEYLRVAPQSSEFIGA
Sequence of Epidermal growth factor receptor [T790M,L858R] (P00533 25-1210 T790M/L858R limits assumed): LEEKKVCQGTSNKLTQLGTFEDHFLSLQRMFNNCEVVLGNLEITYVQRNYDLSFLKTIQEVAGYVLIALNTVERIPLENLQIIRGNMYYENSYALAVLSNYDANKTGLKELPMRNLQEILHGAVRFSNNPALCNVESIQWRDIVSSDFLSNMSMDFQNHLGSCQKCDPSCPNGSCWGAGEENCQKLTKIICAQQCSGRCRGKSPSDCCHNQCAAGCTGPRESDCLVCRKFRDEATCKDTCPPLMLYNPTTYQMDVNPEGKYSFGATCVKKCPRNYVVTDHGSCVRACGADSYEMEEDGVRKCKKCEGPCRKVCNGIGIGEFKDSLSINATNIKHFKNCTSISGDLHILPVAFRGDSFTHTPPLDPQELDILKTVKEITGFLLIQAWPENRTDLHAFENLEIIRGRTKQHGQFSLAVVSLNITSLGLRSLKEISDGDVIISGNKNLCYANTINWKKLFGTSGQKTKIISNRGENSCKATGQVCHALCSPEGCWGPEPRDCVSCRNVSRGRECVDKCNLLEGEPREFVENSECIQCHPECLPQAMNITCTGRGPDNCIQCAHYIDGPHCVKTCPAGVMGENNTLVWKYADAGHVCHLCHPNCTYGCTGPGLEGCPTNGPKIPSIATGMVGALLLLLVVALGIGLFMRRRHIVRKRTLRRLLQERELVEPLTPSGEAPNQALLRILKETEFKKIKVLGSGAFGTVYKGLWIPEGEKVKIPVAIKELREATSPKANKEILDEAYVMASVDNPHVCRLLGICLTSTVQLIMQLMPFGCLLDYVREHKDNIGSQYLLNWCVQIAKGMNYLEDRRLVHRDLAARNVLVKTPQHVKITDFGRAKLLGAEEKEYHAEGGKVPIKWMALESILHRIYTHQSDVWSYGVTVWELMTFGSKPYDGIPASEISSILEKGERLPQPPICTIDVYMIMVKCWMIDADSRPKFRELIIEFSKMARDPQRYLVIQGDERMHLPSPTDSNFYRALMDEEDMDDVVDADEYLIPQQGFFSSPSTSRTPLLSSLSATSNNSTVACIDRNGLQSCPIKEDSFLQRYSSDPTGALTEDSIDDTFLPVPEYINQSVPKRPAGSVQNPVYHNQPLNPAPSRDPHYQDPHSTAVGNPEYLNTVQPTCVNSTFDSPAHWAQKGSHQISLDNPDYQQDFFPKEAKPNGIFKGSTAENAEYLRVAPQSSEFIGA

SMILES | IC50 [1] | IC50 [2]
O=C(Nc1nccs1)C(c1cccc(F)c1)N1Cc2ccc(Br)nc2C1=O (stereo not given) [US12377080, Compound 4] | > 1000 nM | 14 nM
O=C(Nc1ccccn1)C(c1cccc(F)c1)N1Cc2ccc(Br)nc2C1=O (stereo not given) [US12377080, Compound 5] | > 1000 nM | 114 nM

More lines, now with the values ahead:

IC50 [1] | IC50 [2] | SMILES
> 1000 nM | 104 nM | O=C(Nc1nccs1)C(c1cccc(F)c1)N1Cc2cnc(Br)cc2C1=O (stereo not given) [US12377080, Compound 1]
318 nM | 15 nM | O=C(Nc1nccs1)C(c1cccc(F)c1)N1Cc2ncc(Br)cc2C1=O (stereo not given) [US12377080, Compound 2]
> 1000 nM | 40 nM | O=C(Nc1ccccn1)C(c1cccc(F)c1)N1Cc2ncc(Br)cc2C1=O (stereo not given) [US12377080, Compound 3]
